In brackets after ≈: the same amount, converted by molar mass. Entries after “also recorded” stand apart in the source; their conditions may differ. Like-named read-outs stand apart in the source and are kept apart here.
Key:
Format in all cases: cell-based
bacterial cells = assay: Adherence of bacterial cells to the surface of an extracted tooth; conditions: extracted tooth suspended in a culture medium containing sucrose
[1] = tested on: Streptococcus mutans OMZ 176; assay: Antibacterial activity (MIC, growth in BHI medium); design: key to Antibacterial activity (growth): -: grow; ±: slightly grow; +: not grow
Method: (§1) To a test tube was charged 3.8 ml of Brain Heart Infusion (BHI) medium, and 100 μl of a sample solution containing oleanolic, ursolic or glycyrrhetic acid and 100 μl of pre-incubated culture of bacterium selected from those listed below were added thereto. The mixture was incubated at 37° C. and then allowed to stand over night. The extent of the growth of bacterium was observed after two or five days.
Streptococcus mutans OMZ 176

[2] = tested on: S. mutans OMZ 176 (serotype d); assay: microbe, parasite or virus in culture; conditions: for minimal effective concentration / inhibition at 10 µg/mL / inhibition at 20 µg/mL / inhibition at 30 µg/mL / inhibition at 50 µg/mL / inhibition at 100 µg/mL: Streptococcus mutans; for minimal effective concentration: 20 h, read-out: concentration at which adherence of the bacterial cells is inhibited; for inhibition at 10 µg/mL / inhibition at 20 µg/mL / inhibition at 30 µg/mL / inhibition at 50 µg/mL / inhibition at 100 µg/mL: read-out: Adherence-inhibiting activity (AIP)
Method: The adherence-inhibiting activity of the triterpenes of the formula (I) was measured using an inner wall of a test tube in place of the surface of a tooth.
To 2.9 ml of BHI medium containing 5% sucrose in a test tube (i) are added 30 μl of a sample solution prepared by dissolving a compound of: the formula (I) in H2 O or dimethylsulfoxide (DMSO) and 100 μl of culture medium containing S. mutans OMZ 176 (serotype d) which was preincuvated at 37° C. for 24 hours in BHI medium, and the mixture is incubated at 37° C. for 20 hours, with the test tube being maintained at a slant of 30°. The test tube is revolved gently two or three times and the supernatant is transferred to another test tube (ii). To the first test tube (i) is added 3 ml of 50 mM phosphate buffer (pH 7.5), and the test tube is gently revolved two or three times. The resultant supernatant is transferred to the third test tube (iii). The test tubes (ii) and (iii) are each centrifuged and respective supernatants are discarded. To each of the test tubes (i), (ii) and (iii) is added 3 ml of 0.5M NaOH, and the test tubes are shaken to suspend bacterial cells. Absorbance of the resulting suspension is measured at 660 nm. The absorbances obtained with respect to the test tube (i), (ii) and (iii) are represented by Ab(i), Ab(ii) and Ab(iii), respectively. Ab(i) reflects the amount of the bacterial cells adhered to the wall of the test tube and Ab(ii) and Ab(iii) correspond to the amount of the bacterial cells not adhered to the wall.
The same procedure is repeated using 30 μl of distilled water or DMSO in place of the sample solution to obtain a control. The absorbance of the control is represented by Ab(Cont.).
Adherence percentage of bacteria is calculated from the following equation. [formula]
Adherence inhibitory percentage (AIP) is calculated using the adherence percentage according to the following equation. [formula]
The magnitude of adherence-inhibiting activity of each of the samples is shown, in Table 3, by the use of the following symbols: […]

[3] = tested on: Staphylococcus aureus 209P; assay: Antibacterial activity (MIC, growth in BHI medium); design: key to Antibacterial activity (growth): -: grow; ±: slightly grow; +: not grow
Method: To a test tube was charged 3.8 ml of Brain Heart Infusion (BHI) medium, and 100 μl of a sample solution containing oleanolic, ursolic or glycyrrhetic acid and 100 μl of pre-incubated culture of bacterium selected from those listed below were added thereto. The mixture was incubated at 37° C. and then allowed to stand over night. The extent of the growth of bacterium was observed after two or five days. The MIC value was determined for each sample and summarized in Table 2. |Staphylococcus aureus […]

[4] = tested on: Pseudomonas aeruginosa KM338; assay: Antibacterial activity (MIC, growth in BHI medium); design: key to Antibacterial activity (growth): -: grow; ±: slightly grow; +: not grow
Method: To a test tube was charged 3.8 ml of Brain Heart Infusion (BHI) medium, and 100 μl of a sample solution containing oleanolic, ursolic or glycyrrhetic acid and 100 μl of pre-incubated culture of bacterium selected from those listed below were added thereto. The mixture was incubated at 37° C. and then allowed to stand over night. The extent of the growth of bacterium was observed after two or five days. The MIC value was determined for each sample and summarized in Table 2. |Pseudomonas aeruginosa KM338

[5] = tested on: Streptococcus salivarius ATCC 9222; assay: Antibacterial activity (MIC, growth in BHI medium); design: key to Antibacterial activity (growth): -: grow; ±: slightly grow; +: not grow
Method: To a test tube was charged 3.8 ml of Brain Heart Infusion (BHI) medium, and 100 μl of a sample solution containing oleanolic, ursolic or glycyrrhetic acid and 100 μl of pre-incubated culture of bacterium selected from those listed below were added thereto. The mixture was incubated at 37° C. and then allowed to stand over night. The extent of the growth of bacterium was observed after two or five days. The MIC value was determined for each sample and summarized in Table 2. |Streptococcus salivarius ATCC 9222

[6] = tested on: Serratia marcescens IFO 12648; assay: Antibacterial activity (MIC, growth in BHI medium); design: key to Antibacterial activity (growth): -: grow; ±: slightly grow; +: not grow
Method: To a test tube was charged 3.8 ml of Brain Heart Infusion (BHI) medium, and 100 μl of a sample solution containing oleanolic, ursolic or glycyrrhetic acid and 100 μl of pre-incubated culture of bacterium selected from those listed below were added thereto. The mixture was incubated at 37° C. and then allowed to stand over night. The extent of the growth of bacterium was observed after two or five days. The MIC value was determined for each sample and summarized in Table 2. |Serratia marcescens IFO 12648

[7] = tested on: Bacillus megaterium QM B1551; assay: Antibacterial activity (MIC, growth in BHI medium); design: key to Antibacterial activity (growth): -: grow; ±: slightly grow; +: not grow
Method: To a test tube was charged 3.8 ml of Brain Heart Infusion (BHI) medium, and 100 μl of a sample solution containing oleanolic, ursolic or glycyrrhetic acid and 100 μl of pre-incubated culture of bacterium selected from those listed below were added thereto. The mixture was incubated at 37° C. and then allowed to stand over night. The extent of the growth of bacterium was observed after two or five days. The MIC value was determined for each sample and summarized in Table 2. |Bacillus megaterium QM B1551

Esherichia coli K12 = assay: Antibacterial activity (MIC, growth in BHI medium); design: key to Antibacterial activity (growth): -: grow; ±: slightly grow; +: not grow
Method: as §1
Esherichia coli K12 (Gram negative)

[8] = text statement, listed as pomolic acid

SMILES: CC1(C)CC[C@]2(C(=O)O)CC[C@]3(C)C(=CC[C@@H]4[C@@]5(C)CC[C@H](O)[C@@](C)(CO)[C@@H]5CC[C@]43C)[C@@H]2C1 [Hederagenin]
- adherence of bacterial cells to the surface of an extracted tooth (bacterial cells): completely inhibited
- antibacterial activity to S. mutans (in words) [1]: almost the same antibacterial activity as oleanolic acid; also recorded: have both of the adherence-inhibiting activity and the selective antibacterial activity to S. mutans; also recorded: have both activities
- antibacterial activity at 10 μg/ml (in words) ([1]; 10 μg/ml): ineffective for exhibiting antibacterial activity
- adherence-inhibiting activity (in words) [2]: have both of the adherence-inhibiting activity and the selective antibacterial activity to S. mutans; also recorded: have both activities
- minimal effective concentration [2]: 10 µg/mL
- inhibition at 10 µg/mL [2]: < 25%
- inhibition at 20 µg/mL [2]: > 50%
- inhibition at 30 µg/mL [2]: > 50%
- inhibition at 50 µg/mL [2]: > 50%
- inhibition at 100 µg/mL [2]: > 50%

SMILES: C[C@@H]1CC[C@]2(C(=O)O)CC[C@]3(C)C(=CC[C@@H]4[C@@]5(C)CC[C@H](O)C(C)(C)[C@@H]5CC[C@]43C)[C@@H]2[C@]1(C)O [Pomolic acid]
- adherence of bacterial cells to the surface of an extracted tooth (bacterial cells): completely inhibited
- antibacterial activity at 10 μg/ml (in words) ([1]; 10 μg/ml): ineffective for exhibiting antibacterial activity
- antibacterial activity to S. mutans (in words) ([1]; text statement): almost the same antibacterial activity as oleanolic acid
- antibacterial activity to S. mutans (in words) [1, 8]: have both of the adherence-inhibiting activity and the selective antibacterial activity to S. mutans; also recorded: have both activities
- minimal effective concentration [2]: 10 µg/mL
- inhibition at 10 µg/mL [2]: < 25%
- inhibition at 20 µg/mL [2]: > 50%
- inhibition at 30 µg/mL [2]: > 50%
- inhibition at 50 µg/mL [2]: > 50%
- inhibition at 100 µg/mL [2]: > 50%
- adherence-inhibiting activity (in words) [2, 8]: have both of the adherence-inhibiting activity and the selective antibacterial activity to S. mutans; also recorded: have both activities

SMILES: CC1(C)[C@@H](O)CC[C@]2(C)[C@H]3C(=O)C=C4[C@@H]5C[C@@](C)(C(=O)O)CC[C@]5(C)CC[C@@]4(C)[C@]3(C)CC[C@@H]12 [Glycyrrhetic acid]
- Antibacterial activity (growth) ([3]; 10 μg/ml): -
- Antibacterial activity (growth) ([3]; 25 μg/ml): -
- Antibacterial activity (growth) ([3]; 50 μg/ml): -
- Antibacterial activity (growth) ([3]; 100 μg/ml): -
- Antibacterial activity (growth) ([3]; 200 μg/ml): -
- Antibacterial activity (growth) ([3]; 400 μg/ml): -
- MIC ([3]; 209P, Staphylococcus aureus, BHI, 37° C., read-out: MIC (minimum inhibitory concentration)): 400 µg/mL (≈ 850 µM)
- antibacterial action on Staphylococcus aureus (in words) ([3]; text statement): remain unaffected
- Antibacterial activity (growth) ([4]; 10 μg/ml): -
- Antibacterial activity (growth) ([4]; 25 μg/ml): -
- Antibacterial activity (growth) ([4]; 50 μg/ml): -
- Antibacterial activity (growth) ([4]; 100 μg/ml): -
- Antibacterial activity (growth) ([4]; 200 μg/ml): -
- Antibacterial activity (growth) ([4]; 400 μg/ml): -
- MIC ([4]; KM338, Pseudomonas aeruginosa, BHI, 37° C., read-out: MIC (minimum inhibitory concentration)): > 400 µg/mL
- antibacterial action on Pseudomonas aeruginosa (in words) ([4]; text statement): remain unaffected
- Antibacterial activity (growth) ([5]; 10 μg/ml): -
- Antibacterial activity (growth) ([5]; 25 μg/ml): -
- Antibacterial activity (growth) ([5]; 50 μg/ml): -
- Antibacterial activity (growth) ([5]; 100 μg/ml): -
- Antibacterial activity (growth) ([5]; 200 μg/ml): -
- Antibacterial activity (growth) ([5]; 400 μg/ml): ±
- MIC ([5]; ATCC9222, Streptococcus salivarius, BHI, 37° C., read-out: MIC (minimum inhibitory concentration)): > 400 µg/mL
- antibacterial action on Streptococcus salivarius (in words) ([5]; text statement): remain unaffected
- Antibacterial activity (growth) ([6]; 10 μg/ml): -
- Antibacterial activity (growth) ([6]; 25 μg/ml): -
- Antibacterial activity (growth) ([6]; 50 μg/ml): -
- Antibacterial activity (growth) ([6]; 100 μg/ml): -
- Antibacterial activity (growth) ([6]; 200 μg/ml): -
- Antibacterial activity (growth) ([6]; 400 μg/ml): -
- MIC ([6]; IFO12648, Serratia marcescens, BHI, 37° C., read-out: MIC (minimum inhibitory concentration)): > 400 µg/mL
- antibacterial action on Serratia marcescens (in words) ([6]; text statement): remain unaffected
- Antibacterial activity (growth) ([7]; 10 μg/ml): -
- Antibacterial activity (growth) ([7]; 25 μg/ml): +
- Antibacterial activity (growth) ([7]; 50 μg/ml): +
- Antibacterial activity (growth) ([7]; 100 μg/ml): +
- Antibacterial activity (growth) ([7]; 200 μg/ml): +
- Antibacterial activity (growth) ([7]; 400 μg/ml): +
- MIC ([7]; Priestia megaterium, QMB1551, Bacillus megaterium, BHI, 37° C., read-out: MIC (minimum inhibitory concentration)): 25 µg/mL (≈ 53.1 µM)
- antibacterial activity on Bacillus megaterium (in words) ([7]; text statement): exhibits a selective antibacterial activity on S. mutans and Bacillus megaterium
- Antibacterial activity (growth) (Esherichia coli K12; 10 μg/ml): -
- Antibacterial activity (growth) (Esherichia coli K12; 25 μg/ml): -
- Antibacterial activity (growth) (Esherichia coli K12; 50 μg/ml): -
- Antibacterial activity (growth) (Esherichia coli K12; 100 μg/ml): -
- Antibacterial activity (growth) (Esherichia coli K12; 200 μg/ml): -
- Antibacterial activity (growth) (Esherichia coli K12; 400 μg/ml): -
- MIC (Esherichia coli K12; Esherichia coli, BHI, 37° C., read-out: MIC (minimum inhibitory concentration)): > 400 µg/mL
- antibacterial action on Escherichia coli (in words) (Esherichia coli K12; text statement): remain unaffected
- antibacterial activity to S. mutans (in words) [1]: exhibits a selective antibacterial activity on S. mutans and Bacillus megaterium; also recorded: very strong and selective antibacterial activity to S. mutans
- Antibacterial activity (growth) ([1]; 10 μg/ml): +
- Antibacterial activity (growth) ([1]; 25 μg/ml): +
- Antibacterial activity (growth) ([1]; 50 μg/ml): +
- Antibacterial activity (growth) ([1]; 100 μg/ml): +
- Antibacterial activity (growth) ([1]; 200 μg/ml): +
- Antibacterial activity (growth) ([1]; 400 μg/ml): +
- MIC (minimum inhibitory concentration) ([1]; Streptococcus mutans OMZ 176, BHI, 37° C.): lower than 10 μg/ml
- MIC ([1]; Streptococcus mutans, OMZ176, Streptococcus mutans OMZ 176, BHI, 37° C., read-out: MIC (minimum inhibitory concentration)): 10 µg/mL (≈ 21.2 µM)

Reference: patent US4606911A, “Pharmaceutical composition for the prevention of dental caries” (Rohto Pharmaceutical Co. Ltd., priority 1984, dated 1986)
